According to paper PMC11944387, “Cannabidiol-Based Thiosemicarbazones: A Preliminary Study Evaluating Their Anti-Tyrosinase Properties” (Molecules, 2025):
Values joined by “and” are separate entries in the source; they are usually repeats but may differ in a detail not shown here. Equal entries are not always repeated. “Also recorded” adds a separate entry of the source.

Assays:
mushroom TYR [1] = experiment: Inhibition of diphenolase activity of mushroom TYR (L-DOPA substrate); type: biochemical, Agaricus bisporus; details: for IC50: diphenolase activity, L-DOPA 2 mM, pH 6.8, 37 °C, read-out: IC50 against mushroom TYR catalyzing oxidation of L-DOPA; for Inhibitory activity on TYR (in words): discussion of Table 1, mushroom TYR
Procedure: The inhibitory effects of the thiosemicarbazone–CBD–aldehyde derivatives on the diphenolase activity of mushroom TYR were assessed by UV-Vis spectrometry using L-DOPA as the substrate.
A potassium phosphate buffer (80 μL, 50 mM, pH 6.8), 20 μL of tyrosinase (100 units/mL), and 2 μL of the tested compounds (10–150 μM) dissolved in dimethyl sulfoxide (DMSO) were added to 96-well plates. After incubation at 37 °C for 20 min, 100 μL of L-DOPA (2 mM) was added. The absorbance changes at 475 nm (ε = 3.7 × 10^3 M^−1cm^−1) were immediately monitored for 20 min at 37 °C using a Tecan Infinite 200 PRO plate reader. […] Dose–response curves were generated by conducting assays with increasing concentrations of each inhibitor. To ensure measurement accuracy, all experiments were performed in triplicate, with the average value used as the final result.

[2] = DPPH radical-scavenging assay; details: 100 μM DPPH in ethanol, 30 min at room temperature in the dark, absorbance 517 nm; mean ± SD
Procedure: The total antioxidant capacity of the synthesized compounds was determined using the DPPH radical as a reagent, according to the procedure described by Chang et al. with some modifications. Briefly, 100 μL of 100 μM solution of DDPH in ethanol was added to 10 μL of the synthesized compounds at different concentrations (500, 250, 125, 62.5, 31.25, 15.62, and 7.81 μM). […] The percentage of the inhibition of DPPH oxidation was calculated according to the following formula: DPPHscavengingeffect%=Acontrol−Asample/Acontrol×100 where Acontrol means the absorbance of the control sample and Asample means the absorbance of the standard or tested compound.

mushroom TYR [3] = experiment: Fluorescence quenching assay of TYR; type: binding, Agaricus bisporus; details: 310 K; for kq (bimolecular quenching rate constant): from Ksv with τ0 = 10^−8 s; for ka (binding constant): static quenching, double-log equation; for Ksv (Stern–Volmer quenching constant): λex 280 nm, pH 6.8
Procedure: The fluorescence quenching spectra were recorded with an excitation wavelength (λex = 280 nm) and excitation and emission slit widths of 5 nm. A potassium phosphate buffer (80 μL, 50 mM, pH 6.8), 20 μL of tyrosinase (100 units/mL), and 2 μL of the tested compounds (10–100 μM) dissolved in DMSO were added to 96-well plates. After incubating at 37 °C for 20 min, the fluorescence spectrum was recorded at an emission range from 315 to 415 nm. Fluorescence quenching is described by the Stern–Volmer equation [69]: F0/F=1+Kqτ0[Q]=1+ksv[Q]
For the static quenching interaction, the binding affinity (Ka) and the number of binding sites (n) between the inhibitor and TYR were determined using the following calculations:(1) logF0−F/F=nlogQ+logka where F and F0 represent the fluorescence intensities of protein in the presence and absence of a quencher, respectively. [Q] is the quencher concentration. Ksv is the Stern–Volmer quenching constant, and kq is the rate constant of the bimolecular quenching process. τ0 is the average fluorescence lifetime of the fluorophores in the absence of the quencher, with a typical value of 10^−8 s for biological macromolecules.

[4] = Ferric-reducing antioxidant power (FRAP) assay; details: trolox equivalent; 45 min at 37 °C, absorbance 595 nm
Procedure: The antioxidant capacity of the synthesized compounds was evaluated by the reduction of the ferric 2,4,6-tripyridyl-s-triazine complex (Fe^3+-TPTZ) to the ferrous form (Fe^2+-TPTZ) at low pH, which causes a colored ferrous–tripyridyltriazine complex to form, according to the procedure described by Benzie et al., with some modifications. Briefly, 20 µL of the tested compound was mixed with 130 µL FRAP reagent (buffer acetate pH = 3.6, 10 mM TPTZ, 40 mM HCl, 20 mM FeCl3/H2O ratio 10:1:1) and then incubated for 45 min at 37 °C. FRAP values were obtained by comparing the absorbance change at 595 nm in test reaction mixtures with those containing ferrous ions in known concentrations using trolox as a calibration curve (concentrations between 7.8 and 500 µM). The results were expressed as μM of trolox equivalent (TE). The absorbance was measured using a Tecan Infinite 200 PRO plate reader.

mushroom TYR [5] = experiment: Monophenolase inhibition assay of mushroom TYR (L-tyrosine substrate), lag time; type: biochemical, Agaricus bisporus; details: oxidation of L-tyrosine by mushroom TYR; for Lag time: compound 20 μM, without inhibitor 4.40 min; for Lag phase: control 264 s
Procedure: Additionally, the impact of the newly synthesized compounds on the initial stage of TYR enzymatic activity was evaluated using L-tyrosine as the substrate. This initial phase is characterized by a lag period and an increased reaction rate.
[…] After incubation at 37 °C for 20 min, 100 μL of L-tyrosine (2 mM) was added. The absorbance changes at 475 nm were immediately monitored for 40 min at 37 °C using a Tecan Infinite 200 PRO plate reader. The lag time was determined from the plot of absorbance at 475 nm versus time (min) by extrapolating the linear portion of the curve to the x-axis.

mushroom TYR [6] = experiment: Inhibition kinetics on diphenolase activity of TYR (Lineweaver–Burk); type: biochemical, Agaricus bisporus; details: Lineweaver–Burk plot, L-DOPA 0.1–1 mM, compound 2.5–30 μM
Procedure: The inhibition mechanism of compound 5 on the diphenolase activity of TYR was further studied. The inhibition type was determined by the classical Lineweaver–Burk plot based on the inhibitory results of 5.
To evaluate the inhibition kinetics of tyrosinase, assays were conducted in phosphate buffer (50 mM, pH 6.8) using L-DOPA as the substrate (0.1–1 mM) and tyrosinase ([…]) in the presence of varying concentrations of compound 5 (2.5–30 μM) under the same conditions as described in Section 4.4. Absorbance changes at 475 nm were continuously monitored for 40 min at 37 °C using a Tecan Infinite 200 PRO plate reader. Initial reaction velocities (V0) were determined for each inhibitor concentration, and kinetic parameters (Kₘ and Vₘₐₓ) were analyzed using Lineweaver–Burk and Michaelis–Menten plots to determine the type of inhibition. All experiments were performed in triplicate to ensure reproducibility.

SMILES	IC50 (mushroom TYR [1])	Inhibitory activity on TYR (in words) (mushroom TYR [1])	IC50 [2]	kq (bimolecular quenching rate constant) (mushroom TYR [3])	ka (binding constant) (mushroom TYR [3])	Ksv (Stern–Volmer quenching constant) (mushroom TYR [3])	FRAP value [4]	Lag time (mushroom TYR [5])	Lag phase (mushroom TYR [5])	Inhibition type (mushroom TYR [6])
C=C(C)[C@@H]1CCC(C)=C[C@H]1c1c(O)cc(CCCCC)c(C=O)c1O [Compound 2]	> 100 µM	–	–	–	–	–	–	–	–	–
C=C(C)[C@@H]1CCC(C)=C[C@H]1c1c(O)cc(CCCCC)c(/C=N/NC(=N)N)c1O [Compound 4]	> 100 µM	did not exhibit any inhibitory activity	–	–	–	–	–	–	–	–
Cc1c(C)c2c(c(C)c1O)CCC(C)(C(=O)O)O2 (stereo not shown) [trolox, reference compound]	–	–	54.6 ± 3.45 µM	–	–	–	–	–	–	–
C=C(C)[C@@H]1CCC(C)=C[C@H]1c1c(OC)cc(CCCCC)c(/C=N/NC(N)=S)c1OC [Compound 9, 3-thiosemicarbazone–CBD–dimethylether]	22.4 ± 2.9 µM	–	316 ± 16 µM	1.3e+12 M⁻¹ s⁻¹	13100 M⁻¹	13000 M⁻¹	431.5 ± 13.51 μM TE	6.67 min and 6.67 ± 0.17 min	400 s	–
C=C(C)[C@@H]1CCC(C)=C[C@H]1c1c(O)cc(CCCCC)c(/C=N/NC(=S)Nc2ccccc2)c1O [Compound 8, 3-(4-phenyl-3-thiosemicarbazone)–CBD–aldehyde]	42.2 ± 3.52 µM	–	57.6 ± 1.71 µM	4.68e+12 M⁻¹ s⁻¹	25500 M⁻¹	46800 M⁻¹	931.7 ± 8.97 μM TE	4.58 min and 4.58 ± 0.04 min	274 s	–
C=C(C)[C@@H]1CCC(C)=C[C@H]1c1c(O)cc(CCCCC)cc1O [Compound 1, Cannabidiol]	> 100 µM	–	506.1 ± 4.67 µM	–	–	–	282.1 ± 5.68 μM TE	–	–	–
C=C(C)[C@@H]1CCC(C)=C[C@H]1c1c(O)cc(CCCCC)c(/C=N/NC(=S)N(C)C)c1O [Compound 7, 3-(4,4-dimethyl-3-thiosemicarbazone)–CBD–aldehyde]	28.1 ± 1.82 µM	–	116 ± 5.05 µM	1.38e+12 M⁻¹ s⁻¹	5200 M⁻¹	13800 M⁻¹	981.9 ± 9.66 μM TE	6.19 min and 6.19 ± 0.27 min	371 s	–
C=C(C)[C@@H]1CCC(C)=C[C@H]1c1c(O)cc(CCCCC)c(/C=N/NC(=S)NC)c1O [Compound 6, 3-(4-methyl-3-thiosemicarbazone)–CBD–aldehyde]	29.4 ± 2.22 µM	–	63.7 ± 3.29 µM	9.98e+11 M⁻¹ s⁻¹	8700 M⁻¹	9980 M⁻¹	–	6.06 min and 6.06 ± 0.11 min	363 s	–
C=C(C)[C@@H]1CCC(C)=C[C@H]1c1c(O)cc(CCCCC)c(/C=N/NC(N)=S)c1O [Compound 5, 3-thiosemicarbazone–CBD–aldehyde]	27.7 ± 1.84 µM	–	53.5 ± 5.29 µM	7.61e+11 M⁻¹ s⁻¹	12100 M⁻¹	7610 M⁻¹	1257 ± 6.78 μM TE	9.89 min and 9.89 ± 0.66 min	593 s	mixed-type inhibition; also recorded: reversible, mixed-type inhibitor
C=C(C)[C@@H]1CCC(C)=C[C@H]1c1c(O)cc(CCCCC)c(/C=N/NC(N)=O)c1O [Compound 3]	> 100 µM	did not exhibit any inhibitory activity	–	–	–	–	–	–	–	–
